Data from patent US7989479B2, “Use of a p38 kinase inhibitor for treating psychiatric disorders” (GlaxoSmithKline LLC, priority 2006, dated 2011).

Legend:
[1] = test system: LPS induced elevations in TNF-a, IL-6, IL-10 and ACTH levels; experiment: LPS induced elevations of cytokines and HPA-axis markers in blood (biomarker analysis, satellite group); format: in vivo; conditions: rats; 20 mg/kg p.o. 1 hour before LPS (125 ug/kg i.p.); blood samples
Description: (§1) Administration of lipopolysaccharide (LPS) to rats is known to produce not only robust measures of sickness behaviour (reduced locomotor activity, reduced intake of both food and water, decreased body weight & decreased social interest) but also large elevations of peripheral pro-inflammatory cytokines and HPA-axis markers that can mimic some of the symptoms and underlying pathobiology observed in major depressive disorder (Dunn et al., (2005). Neurosci. Behav. Rev., 29, 891-909). Indeed the injection of cytokines into man produces such neuropsychiatric disturbances in non-major depressive disorder patients (Schiepers & Maes (2005). Prog. Neuro-psychopharmacol. & Biol. Psych., 29, 201-217).
(§2) 6-(5-Cyclopropylcarbamoyl-3-fluoro-2-methyl-phenyl)-N-(2,2-dimethylpropyl)-nicotinamide was administered (p.o.) 1 hour before the administration of LPS (125 ug/kg i.p.) and then behavioural assessments were performed 2 hours thereafter. A satelite group of animals were treated in the same way and blood samples taken for biomarker analysis.

[2] = test system: LPS induced sickness behaviour; experiment: LPS induced sickness behaviour in rats; format: in vivo; conditions: 20 mg/kg p.o. 1 hour before LPS (125 ug/kg i.p.), behavioural assessments 2 hours thereafter
Description: as §1, §2

## Cc1c(F)cc(C(=O)NC2CC2)cc1-c1ccc(C(=O)NCC(C)(C)C)cn1 [6-(5-Cyclopropylcarbamoyl-3-fluoro-2-methyl-phenyl)-N-(2,2-dimethylpropyl)-nicotinamide]
[1]
  reduction in LPS induced elevation in ACTH level: > 80%
  reduction in LPS induced elevation in IL-6 level: > 80%
  reduction in LPS induced elevation in IL-10 level: > 80%
  reduction in LPS induced elevation in TNF-a level: > 80%
[2]
  reversal of LPS induced sickness behaviour: significantly reversed
